Reference: patent US11136351B2 (priority 2016, dated 2021)
No end group written: not given here.

Experiments:
Type in all cases: cell-based
[1] = tested on: HVA calcium channels in rat DRG neurons; settings: for rat HVA Ca^2+ channel I/Icontrol ± SEM (n): 1 μM
human α7 nAChR = target: T1, human α7 nAChR (Homo sapiens, UniProt P36544); settings: 3 μM
T1 construct: expressed in transfected cells; host or cells: Xenopus laevis oocytes

human α9α10 nAChR = target: T2, human α9α10 nAChR (Homo sapiens, UniProt Q9GZZ6+Q9UGM1); settings: 3 μM
T2 construct: expressed in transfected cells; host or cells: Xenopus laevis oocytes
T2 sequence (Q9UGM1 26-479 limits assumed): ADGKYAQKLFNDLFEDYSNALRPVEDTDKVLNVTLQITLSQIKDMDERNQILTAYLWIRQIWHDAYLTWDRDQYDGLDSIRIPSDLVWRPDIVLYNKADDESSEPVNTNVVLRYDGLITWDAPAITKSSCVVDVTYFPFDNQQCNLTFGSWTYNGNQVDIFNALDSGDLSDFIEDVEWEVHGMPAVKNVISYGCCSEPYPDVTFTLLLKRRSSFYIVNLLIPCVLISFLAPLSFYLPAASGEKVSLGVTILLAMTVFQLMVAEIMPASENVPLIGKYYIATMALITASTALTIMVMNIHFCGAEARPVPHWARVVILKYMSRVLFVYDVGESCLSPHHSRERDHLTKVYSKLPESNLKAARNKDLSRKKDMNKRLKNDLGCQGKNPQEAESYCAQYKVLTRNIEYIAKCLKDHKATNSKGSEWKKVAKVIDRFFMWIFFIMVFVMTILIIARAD
T2 sequence (Q9GZZ6 25-450): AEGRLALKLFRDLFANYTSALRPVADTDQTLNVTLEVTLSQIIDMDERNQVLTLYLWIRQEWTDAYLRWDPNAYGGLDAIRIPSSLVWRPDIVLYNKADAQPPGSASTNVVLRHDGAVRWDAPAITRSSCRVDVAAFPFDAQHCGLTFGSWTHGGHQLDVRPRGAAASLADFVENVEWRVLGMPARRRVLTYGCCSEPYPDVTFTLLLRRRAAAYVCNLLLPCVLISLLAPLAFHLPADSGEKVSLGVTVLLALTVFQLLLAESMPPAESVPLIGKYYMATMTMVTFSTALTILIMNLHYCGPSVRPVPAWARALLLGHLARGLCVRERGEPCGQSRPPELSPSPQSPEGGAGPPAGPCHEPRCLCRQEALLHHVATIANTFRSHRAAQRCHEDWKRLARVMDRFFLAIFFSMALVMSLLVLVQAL

Substance | inhibition of HVA calcium currents by globular, ribbon and beads isomers [1] | rat HVA Ca^2+ channel I/Icontrol ± SEM (n) [1] | human α7 nAChR I/Icontrol ± SEM (n) (human α7 nAChR) | human α9α10 nAChR I/Icontrol ± SEM (n) (human α9α10 nAChR)
Pn1.2: native full length Pn1.2, SEQ ID No. 42: G C C S H P P C F L N N P D Y C (GCCSHPPCFLNNPDYC; not fully specified; ends and bridges not checked) | found to inhibit HVA calcium currents | 0.78 ± 0.03 (11) | 0.006 ± 0.005 (5) | 0.012 ± 0.001 (4)
Pu1.2: native full length Pu1.2, SEQ ID No. 41: G G C C S Y P P C I A N N P L C (GGCCSYPPCIANNPLC; not fully specified; ends and bridges not checked) | found to inhibit HVA calcium currents | 0.73 ± 0.02 (12) | 0.98 ± 0.03 (6) | 1.01 ± 0.04 (4)
